Molecules are shown by their SMILES.

The assay addresses T1, HCV RNA polymerase (RNA dependent RNA polymerase, NS5B) (Hepatitis C virus genotype 1b, UniProt P26663).
T1 construct: the NS5B region (1773 bps) was amplified by PCR and cloned into pVLHIS, a baculovirus transfer vector; (His)6; made in house; host or cells: Sf9 insect cells (recombinant baculovirus, pVLHIS-NS5B)
The assay is described as follows: Inhibitory effect on activity of recombinant HCV RNA polymerase (NS5B) in vitro. Type of assay: biochemical, HCV-1b type HCV. How it is done:
Test of Inhibitory Effect on Activity of HCV RNA Polymerase (RNA Dependent RNA Polymerase, NS5B) in vitro
The following in vitro experiments were conducted to examine the inhibitory effect of the compounds according to the present invention on the activity of HCV RNA dependent RNA Polymerase.
HCV cDNA was obtained from the blood of HCV-1b type HCV patient and the NS5B region (1773 bps) was amplified by PCR and cloned into pVLHIS, a baculovirus transfer vector, to prepare a recombinant transfer vector. The prepared transfer vector and the wild-type AcNPV vector were cotransfected into Sf9 insect cell line to yield a recombinant baculovirus containing the histidine-tagged recombinant vector pVLHIS-NS5B. Sufficiently cultured insect cells were infected with the resulting recombinant baculovirus and cultured in Grace's medium containing 10% FBS for 3 to 4 days. The culture broth was centriftiged to obtain only the infected cells. The cells were washed three times with PBS and resuspended in binding buffer [50 mM Na-phosphate (pH 8.0), 30 mM NaCl, 10 mM imidazole, 1 mM DTT, 10% glycerol, 1% NP40], sonicated and the clearized lysate was obtained. Recombinant NS5B was purified by affinity column chromatography using a Ni-NTA His bind resin (Novagen) to produce pure NS5B protein. The (His)6-tagged NS5B was bound to Ni-NTA resin and washed the binding buffer containing 50 mM imidazole. The bound NS5B was eluted with the binding buffer containing imidazole in a step-gradient manner (100-300 mM). The NS5B protein fractions were dialyzed against buffer [50 mM Tris-HCl, 50 mM NaCl, 1 mM DTT, […], 10% glycerol], followed by at −70° C. in a small aliquot.
The 3′UTR cDNA (220 bp) of HCV was obtained from 1b HCV RNA of the blood of a hepatitis C patient by PCR and cloned into pcDNA3 vector. Linearized DNA fragment containing the 3′-UTR was prepared using the restriction enzyme Eco RI and used as a template for in vitro transcription using T7 RNA ploymerase to prepare RNA fragment containing 3′-UTR.
In vitro inhibitory activity of the compounds of the present invention on recombinant HCV RNA polymerase was measured as follows.
A streptavidin-coated well plate was prepared suitable for the sample to be examined. 25 μl of 2× assay buffer [50 mM Tris-Cl (pH 7.5), 100 mM NaCl, 10 mM MgCl2, 20 mM KCl, 1 mM EDTA, 1 mM DTT] and 10 μl of purified HCV RNA polymerase 200 ng and 3′-UTR template RNA were added to each well. Then, 5 μl of the sample to be examined was added to have final concentrations of 10, 1, 0.1 and 0.01 μg/mL. Finally, 10 μl of a reactant solution containing DIG-(digoxigenin)-UTP, biotin-UTP, ATP, CTP, GTP, and UTP as a nucleotide for the ploymerase reaction with the RNA template of HCV 3′-UTR RNA was added to each well. The reaction mixture was incubated at 22° C. for 60 minutes. By the action of HCV polymerase, newly generated RNAs including UTP conjugated with biotin and DIG were copied and these new RNAs could bind to streptavidin coated on the well by biotin-conjugated UTP. After completion of the reaction, the plate was washed three times with 200 μl of a washing buffer (pH 7.0, Roche Co.) to remove unreacted substances and impurities. Then, 100 μl of the secondary antibody anti-DIG-POD (peroxidase, Roche Co.) was added to each well and incubated at 37° C. for 1 hour. Again, the well plate was washed with the washing buffer. Finally, 100 μl of ABTS^R (Roche Co.) as a POD substrate was added to each well and reacted for 15 to 30 minutes. The optical density (OD) was measured using an ELISA reader (Bio-Tek instrument Co.) at 405 nm. The inhibitory effect on the activity of HCV polymerase was calculated by subtracting the OD of the positive control without the sample.

T1 sequence (P26663 2420-3010): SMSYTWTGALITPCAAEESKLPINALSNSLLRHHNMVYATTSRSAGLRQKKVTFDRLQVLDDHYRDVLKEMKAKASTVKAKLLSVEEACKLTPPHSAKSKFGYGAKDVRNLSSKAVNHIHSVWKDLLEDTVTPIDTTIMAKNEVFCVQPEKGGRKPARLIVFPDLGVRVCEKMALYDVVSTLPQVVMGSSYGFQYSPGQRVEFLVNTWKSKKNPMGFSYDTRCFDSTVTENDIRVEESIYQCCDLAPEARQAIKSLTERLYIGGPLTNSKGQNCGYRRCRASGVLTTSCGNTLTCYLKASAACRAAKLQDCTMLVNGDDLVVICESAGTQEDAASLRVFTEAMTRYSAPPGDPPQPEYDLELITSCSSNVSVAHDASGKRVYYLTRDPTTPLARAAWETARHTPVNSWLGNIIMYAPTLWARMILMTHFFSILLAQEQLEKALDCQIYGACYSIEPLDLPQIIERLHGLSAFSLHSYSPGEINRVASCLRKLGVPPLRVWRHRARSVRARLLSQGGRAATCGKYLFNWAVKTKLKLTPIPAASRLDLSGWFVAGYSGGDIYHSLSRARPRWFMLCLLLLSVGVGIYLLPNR

Regarding `CSc1nc(Nc2ccc(N3CCOCC3)cc2)cc(N2CCN(C(=O)OC(C)C)CC2)n1` [Example 1, 2-methylthio-6-[4-(4-morpholino)anilino]-4-[4-(isopropoxycarbonyl)piperazin-1-yl]pyrimidine], the “Inhibition of activity of HCV RNA polymerase (%)” value (from here on “Inhibition of activity … (%)”) (0.01 μg/mL) is 29%, the “Inhibition of activity … (%)” value (0.1 μg/mL) stood at 55%, the “Inhibition of activity … (%)” value (1 μg/mL) was found to be 81% and the “Inhibition of activity … (%)” value (10 μg/mL) amounted to 99%.
Taken in the same sequence, the figures for `CSc1nc(Nc2ccc(N3CCOCC3)cc2)cc(N2CCN(C(=O)c3cccnc3)CC2)n1` [Example 2, 2-methylthio-6-[4-(4-morpholino)anilino]-4-[4-[(3-pyridyl)carbonyl]piperazin-1-yl]pyrimidine] were 15%, 30%, 62% and 98%.
For the compound `CSc1nc(Nc2ccc(N3CCOCC3)cc2)cc(N2CCN(C(=O)c3ccncc3)CC2)n1` [Example 3, 2-methylthio-6-[4-(4-morpholino)anilino]-4-[4-[(4-pyridyl)carbonyl]piperazin-1-yl]pyrimidine], the “Inhibition of activity … (%)” value (0.01 μg/mL) was found to be 23%, the “Inhibition of activity … (%)” value (0.1 μg/mL) came out at 53%, the “Inhibition of activity … (%)” value (1 μg/mL) is 73% and the “Inhibition of activity … (%)” value (10 μg/mL) is 93%.
Taken in the same sequence, the figures for `CSc1nc(Nc2ccc(N3CCOCC3)cc2)cc(N2CCN(CC(=O)O)CC2)n1` [Example 4, 2-methylthio-6-[4-(4-morpholino)anilino]-4-[4-(carboxymethyl)piperazin-1-yl]pyrimidine] were 27%, 52%, 65% and 94%.
